According to PubChem BioAssay (NCI):
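Method: 48-hour compound exposure of cells in 96-well plates, five concentrations, linear interpolation of endpoints. GI50 is the concentration that inhibits growth by half. Definition used: TGI = concentration required for complete inhibition of growth.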

Experiments:
Assay in all cases: NCI anticancer screen, dose series, 48 h
[1] = tested on: MCF7 breast
[2] = tested on: MDA-MB-435
[3] = tested on: SF-539 CNS
[4] = tested on: SK-MEL-28 melanoma
[5] = tested on: SK-MEL-5 melanoma
[6] = tested on: T-47D breast

Row | SMILES | GI50 [1] [µM] | TGI [1] [µM] | GI50 [2] [µM] | TGI [2] [µM] | GI50 [3] [µM] | TGI [3] [µM] | GI50 [4] [µM] | TGI [4] [µM] | GI50 [5] [µM] | TGI [5] [µM] | TGI [6] [µM] | GI50 [6] [µM]
1 | Cc1ccc([P+](Cc2ccc([N+](=O)[O-])cc2)(c2ccc(C)cc2)c2ccc(C)cc2)cc1 | 2.72 | 12.6 | 0.772 | 3.6 | 4.06 | 15.9 | 2.82 | 12.9 | 1.22 | 2.52 |  | 
2 | CC(CS(=O)(=O)Cc1ccccc1)C(N)=O (centres undefined) |  | > 100 |  | > 100 |  | > 100 |  | > 100 |  | > 100 | > 100 | 
3 | COc1cccc(-c2nn(-c3ccccc3)cc2-c2ccnc(NCCNC(=O)Nc3ccc(Cl)c(Cl)c3)c2)c1 | 2.46 | 11.7 | 1.86 | 4.26 | 1.93 | 4.17 | 2.03 | 4.59 | 1.95 | 3.71 | 24.7 | 3.85
4 | COc1c(O)c(OC)c(C(=O)/C=C/c2ccccc2)c(O)c1OC |  | > 100 |  | 66.2 |  | 86.7 |  | > 100 |  | 46 | 79.7 | 
5 | O=C(Oc1c(I)ccccc1=O)c1ccc([N+](=O)[O-])cc1 |  | 35.5 |  | 42.4 |  | 37.6 |  | 21.7 |  | 13.6 | 1.33 | 
6 | c1ccc2c(c1)nc(NCCN1CCNCC1)c1c3ccccc3[nH]c21 | 0.0799 | 0.709 | 0.798 | 2.24 | 0.616 | 2.2 | 1.37 | 2.8 | 1.27 | 2.61 | 3.83 | 0.903
7 | N#CC1c2ccccc2-c2ccccc2N1C(=O)c1ccccc1 (centres undefined) | 1.3 | > 100 | 0.255 | 0.761 | 2.29 | 7.05 | 1.75 | > 100 | 1.55 | 4.84 | > 100 | 25.7
8 | CN1CCCC1c1cccnc1.O=C(O)c1ccccc1O.O=C([O-])c1ccccc1[OH2+].O=C([O-])c1ccccc1[OH2+].O=C([O-])c1ccccc1[OH2+].[Mn+2] (centres undefined) | 50 | > 100 | > 100 | > 100 |  |  | > 100 | > 100 | > 100 | > 100 | > 100 | > 100
9 | O=C1c2cccnc2C(=O)c2c1c(C(=O)OCCCN1CCOCC1)c1ccccn21 | < 0.01 | < 0.0116 | < 0.0118 | 2.06 | < 0.01 | 0.0372 | 0.0658 | 4.57 | < 0.0114 | 0.0951 | 5.94 | 0.178
10 | CCCCCCCCCCCCCCCC[N+]1(CC)CCCC1 |  |  |  |  | 0.683 | 1.98 | 1.18 | 2.81 | 0.4 | 1.52 | 3.93 | 0.528
11 | Cc1ccc(C2=Nc3c(N)ncnc3NC(c3cccc(Nc4ccnc5cc(C(F)(F)F)ccc45)c3)C2)cc1 (centres undefined) | 2.41 | 11.5 | 1.94 | 4.84 | 2.68 | 9.26 | 3.81 | 31.4 | 2.05 | 4.24 | > 100 | 4.45
12 | C/C(=C(/c1ccc(O)cc1)c1ccc(OCCN2CCCC2)cc1)c1ccccc1 |  | 2.72 | 1.88 | 4.4 | 1.81 | 3.76 | 1.65 | 3.41 | 1.72 | 3.1 | 7.93 | 0.716
13 | O=C1C=C(Nc2cccc(Br)c2)c2ccccc2C1=O | 2.71 | 24.2 | 0.19 | 0.484 | 1.93 | 4.56 | 8.76 | 61.4 | 1.2 | 10.5 |  | 
14 | Cc1nn(-c2ccccc2)c2c1C1C(=C(c3ccc(Cl)cc3)N2)C(=O)Nc2ccccc21 (centres undefined) | 3.16 | > 100 | 3.26 | 17.2 | 3.15 | 12.9 | 4.65 | 62.1 | 1.88 | 4.31 | 38.5 | 4.33
15 | O=c1oc(-c2ccc(O)c(O)c2)cc2cc(O)cc(O)c12 | 42.7 | > 100 | 33 | > 100 | 26.7 | 91.5 | 39.5 | > 100 | 18 | 42.2 | > 100 | 54.5
16 | CC1(CC(=O)O)OC2CCCCCC2O1 (centres undefined) (tested in a mixture with another compound) |  | > 100 |  | > 100 |  | > 100 |  | > 100 |  | > 100 | > 100 | 
17 | COc1ccccc1C(=O)c1cnc(NC2CCN(S(C)(=O)=O)CC2)nc1N | 1.19 | > 25 | 4.83 | > 25 | 4.97 | 15.2 | 6.38 | > 25 | 4.84 | > 25 | > 25 | 8.8
18 | CCN(CC)CCOc1ccc(/C=C2\C[C@H]3[C@@H]4CC=C5C[C@@H](OC(C)=O)CC[C@]5(C)[C@H]4CC[C@]3(C)[C@H]2OC(C)=O)cc1OC | 12.8 | > 50 | 11 | 21.7 | 8.59 | 16 | 12.4 | > 50 | 5.39 | 17 | 48.1 | 16.3
19 | Oc1cccc(-c2nc3ccccc3s2)c1 |  | > 100 |  | > 100 |  | > 100 |  | > 100 |  |  | 56.8 | 
20 | COc1ccc(C2=CC(c3cc(OC)c(OC)c(OC)c3)n3ncnc3N2)cc1 (centres undefined) | 0.0399 | 13.7 |  |  |  |  | 10.9 | > 100 | 0.0427 | 0.374 |  | 
21 | CCOC(=O)c1[nH]c2c(c1C)-c1[nH]c(=O)c(S(=O)(=O)c3ccccc3)cc1SC2 | 40.4 | > 100 | 42.8 | > 100 | 30.6 | > 100 | 70 | > 100 | 37.4 | > 100 | 58.9 | 15.4
